Reference: patent publication US20240384268A1, “Oligonucleotides” (Hudson Institute of Medical Research, priority 2021, published 2024)

Target: T1, TLR8 (Homo sapiens, UniProt Q9NR97)
T1 sequence (Q9NR97 27-1041): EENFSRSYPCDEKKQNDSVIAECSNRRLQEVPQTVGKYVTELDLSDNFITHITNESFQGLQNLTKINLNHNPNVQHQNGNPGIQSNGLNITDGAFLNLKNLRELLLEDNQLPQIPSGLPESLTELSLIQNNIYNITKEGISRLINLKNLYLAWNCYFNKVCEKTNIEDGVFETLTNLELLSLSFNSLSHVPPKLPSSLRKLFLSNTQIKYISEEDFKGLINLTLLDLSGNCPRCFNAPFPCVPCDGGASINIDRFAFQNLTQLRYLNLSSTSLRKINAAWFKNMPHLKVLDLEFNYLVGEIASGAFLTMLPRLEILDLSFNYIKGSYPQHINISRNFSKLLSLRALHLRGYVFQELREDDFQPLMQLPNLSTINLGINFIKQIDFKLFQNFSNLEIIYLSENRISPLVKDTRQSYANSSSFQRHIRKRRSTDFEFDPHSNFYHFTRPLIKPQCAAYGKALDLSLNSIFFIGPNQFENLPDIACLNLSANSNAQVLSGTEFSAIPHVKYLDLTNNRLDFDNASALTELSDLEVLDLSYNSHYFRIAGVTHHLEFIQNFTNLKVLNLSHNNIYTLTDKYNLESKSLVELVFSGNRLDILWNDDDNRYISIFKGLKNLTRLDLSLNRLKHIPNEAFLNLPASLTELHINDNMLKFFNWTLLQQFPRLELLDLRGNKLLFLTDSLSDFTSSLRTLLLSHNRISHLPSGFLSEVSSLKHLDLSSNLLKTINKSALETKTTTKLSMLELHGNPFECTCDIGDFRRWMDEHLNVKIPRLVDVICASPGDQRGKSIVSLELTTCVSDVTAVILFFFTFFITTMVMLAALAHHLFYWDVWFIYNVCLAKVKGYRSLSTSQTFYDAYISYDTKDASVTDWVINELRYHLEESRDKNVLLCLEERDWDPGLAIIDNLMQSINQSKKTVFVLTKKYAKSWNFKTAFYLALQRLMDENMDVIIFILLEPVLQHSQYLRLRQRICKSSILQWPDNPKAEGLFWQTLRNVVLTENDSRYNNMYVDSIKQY
Experiment: HEK-TLR8 NF-κB-luciferase reporter, R848 or Motolimod stimulation (potentiation or inhibition)
Format: cell-based
Set-up: expressed in transfected cells; host or cells: 293XLhTLR8 (HEK293)
Details: relative to R848 only; for TLR8 100 nM (averaged NF-κB-Luciferase level relative to R848 condition, fold increase): ASO 100 nM; for TLR8 500 nM (averaged NF-κB-Luciferase level relative to R848 condition, fold increase): ASO 500 nM
Procedure: (§1) In such examples, potentiation of TLR8 activity can be identified by observation of an overall increased TLR8 response of the cell population, or a higher proportion of cells having TLR8-positive activity as compared to a negative control condition in which cells are treated with TLR8 agonist in the absence of the oligonucleotide (or in the presence of an appropriate control non-potentiating agent). In one example, 293XLhTLR8 (referred to as HEK-TLR8) cells are transfected with pNF-κB-Luc4 reporter, incubated with an oligonucleotide, and then stimulated with R848. TLR8 activity can be determined by a luciferase assay, which measures activated NF-κB by luminescence. TLR8 activity can also be analysed by measuring cytokine levels, for example by ELISA.
as §1, with “inhibition” for “potentiation”, “decreased” for “increased”, “lower” for “higher”, “positive” for “negative”, “inhibitory” for “non-potentiating”
For cGAS stimulations, cells were treated for indicated duration with ASOs, prior to transfection with ISD70 (human cells) or ISD45 (mouse cells) (the ASOs were not washed off prior to ISD transfection unless otherwise indicated). The cGAS ligands ISD45 (Stetson and Medzhitov, 2006) and ISD70 (also known as VACV-70 (Unterholzner et al., 2010)) (Table 1) were resuspended as follows: 5 1d of sense and 5 μl of antisense strands at 10 μg/μl were added to 90 μl PBS under sterile conditions, heated at 75° C. for 30 min, prior to letting cool down at room temperature and aliquoting (stock at 1 μg/1 l). The ISDs were transfected at a concentration of […] at a ratio of 1 μg:1 μl with Lipofectamine 2000 in Opti-MEM (Thermo Fisher Scientific). HEK-TLR3, HEK-TLR7 and […] were treated with indicated concentration of ASOs for 20-50 min, prior to stimulation with poly(I:C) (Invivogen), R848 (Invivogen), Motolimod (MedChemExpress) and the Class B CpG oligonucleotides ODN 2006 (synthesised by IDT and resuspended in RNase-free TE buffer [Table 1]), respectively. The TLR2/1 agonist PAM3CSK4 (Invivogen), the TLR4 agonist lipopolysaccharide (Invivogen), the Class B CpG oligonucleotides ODN 1826 (synthesised by IDT and resuspended in RNase-free TE buffer), the mouse Sting agonist DMXAA (Cayman) and the human STING agonist (compound #3 from (Raanjulu et al., 2018), referred to as GSK herein—kind gift from Cancer Therapeutics CRC, Australia) were used at indicated concentrations. Aspirin (Sigma—A2093) was resuspended in pure medium to 10 mM, filter sterilised and added to the cells at 2 mM final. All ASOs were synthesised by Integrated DNA Technologies (IDT), and resuspended in RNase-free TE buffer, pH 8.0 (Thermo Fisher Scientific). Cell viability was assessed by adding 1× fresh resazurin solution to the wells (10λ solution made up with 7 mg resazurin [Sigma—R7017] dissolved in 3.5 ml PBS, sterile filtered at […]) for 4 h, prior to reading at with a Fluostar OPTIMA (BMG LABTECH) plate-reader (fluorescence: Excitation 535 nm, Emission 590); wells with medium only and 1× resazurin were used as blanks.

Sequence	TLR8 100 nM (averaged NF-κB-Luciferase level relative to R848 condition, fold increase)	TLR8 500 nM (averaged NF-κB-Luciferase level relative to R848 condition, fold increase)
CCAAGATCAGCAGTCT (antisense; LNA-modified, pattern not given here) [CTNN2B-2341 LNA KL]	1.015	2.920
TTTTGGCTGGGATCAA (antisense; LNA-modified, pattern not given here) [CAMSAP1-4697 LNA KL]	0.542	1.412
GCATCCACCACGTCGT (antisense; LNA-modified, pattern not given here) [EGFR-3267 LNA V1]	0.607	0.738
TGCACACTTCGTACCC (antisense; LNA-modified, pattern not given here) [CAMSAP1-4916 LNA V1]	0.411	0.370
CAACACTTCGTGGGGT (antisense; LNA-modified, pattern not given here) [HPRT LNA-667 V1]	0.591	0.690
GTGTCTGGAAGCTTCC (antisense; LNA-modified, pattern not given here) [CTNN2B-809 LNA V1]	0.923	2.057
GTATCGAAAGAGTCTG (antisense; LNA-modified, pattern not given here) [EGFR-3908 LNA KL]	0.637	1.781
TGGCCTCCCATCTCCT (antisense; LNA-modified, pattern not given here) [HPRT LNA-329 V1]	0.495	1.127
GGTTACGGCTCAGTAT (antisense; LNA-modified, pattern not given here) [CAMSAP1-4295 LNA KL]	0.804	1.848
GCCATGCTGGCTCGGA (antisense; LNA-modified, pattern not given here) [CAMSAP1-2584 LNA V1]	0.446	0.363
ACACTTCGTGGGGTCC (antisense; LNA-modified, pattern not given here) [HPRT LNA-665 V1]	0.422	1.029
GTTCAGTCCTGTCCAT (antisense; LNA-modified, pattern not given here) [HPRT LNA-292 V1]	1.069	4.129
CCATCCATGAGGTCCT (antisense; LNA-modified, pattern not given here) [CTNN2B-2545 LNA V1]	0.675	1.169
GCCATCCACTTGATAG (antisense; LNA-modified, pattern not given here) [EGFR-2874 LNA V1]	0.440	0.681
GTCCCCTGTTGACTGG (antisense; LNA-modified, pattern not given here) [HPRT LNA-489 KL]	0.335	0.304
GCCATGTTTCTTCTTG (antisense; LNA-modified, pattern not given here) [MB21D1-1248 LNA KL]	0.430	0.431
TTCGTGGGGTCCTTTT (antisense; LNA-modified, pattern not given here) [HPRT LNA-661 V1]	0.621	3.144
GCAGGCTCAGTGATGT (antisense; LNA-modified, pattern not given here) [CTNN2B-1642 LNA V1]	0.638	1.440
TGATGGCCTCCCATCT (antisense; LNA-modified, pattern not given here) [HPRT LNA-332 V1]	0.374	0.263
TCGTAGTTGCTTCCTA (antisense; LNA-modified, pattern not given here) [MB21D1-1181 LNA KL]	0.557	1.583
TCCAACACTTCGTGGG (antisense; LNA-modified, pattern not given here) [HPRT LNA-669 V1]	0.413	0.491
TGTGATGGCCTCCCAT (antisense; LNA-modified, pattern not given here) [HPRT LNA-334 V1]	0.582	1.596
GTCTTGGCTTCGTGGA (antisense; LNA-modified, pattern not given here) [MB21D1-522 LNA V1]	0.678	2.137
